Earlier results as cited in patent US20130108982A1, “Reshapable Device for Fixation at a Dental Site” (COLLDENT Y.A. LTD., priority 2007, published 2013).

| SMILES | acute lethal dose of fluoride (F) (acute) [mg F/Kg body weight] | chronic toxicity (chronic) [mg F/Kg] | antibacterial activity (bacteria) |
| --- | --- | --- | --- |
| F [fluoride] | 33 | 0.1 |  |
| [F][Sn][F] [stannous fluoride] |  |  | has shown antibacterial activity |
